Measured values: article PMC6407917, “Identification of GSK3186899/DDD853651 as a Preclinical Development Candidate for the Treatment of Visceral Leishmaniasis” (Journal of Medicinal Chemistry, 2018)

Columns and labels:
Test in all cases: biochemical
Parameters in all cases: species or system HEK293/K-562/placenta mixed human extract; Kinobeads chemoproteomic competition binding, quantified by TMT LC-MS/MS, dose response up to 20 uM
FN3KRP = FN3KRP (Homo sapiens, UniProt Q9HA64)
DAPK1 = DAPK1 (Homo sapiens, UniProt P53355)
MARK3 = MARK3 (Homo sapiens, UniProt P27448)
NEK9 = NEK9 (Homo sapiens, UniProt Q8TD19)
MAP2K3 = MAP2K3 (Homo sapiens, UniProt P46734)
DYRK2 = DYRK2 (Homo sapiens, UniProt Q92630)
BMP2K = BMP2K (Homo sapiens, UniProt Q9NSY1)
FGFR1 = FGFR1 (Homo sapiens, UniProt P11362)
MARK2 = MARK2 (Homo sapiens, UniProt Q7KZI7)
MINK1 = MINK1 (Homo sapiens, UniProt Q8N4C8)
SRC = SRC (Homo sapiens, UniProt P12931)
MAP2K6 = MAP2K6 (Homo sapiens, UniProt P52564)
MET = MET (Homo sapiens, UniProt P08581)
DYRK1A = DYRK1A (Homo sapiens, UniProt Q13627)
PRKG1 = PRKG1 (Homo sapiens, UniProt Q13976)
AURKA = AURKA (Homo sapiens, UniProt O14965)
MAP4K5 = MAP4K5 (Homo sapiens, UniProt Q9Y4K4)
GSK3A = GSK3A (Homo sapiens, UniProt P49840)
LYN = LYN (Homo sapiens, UniProt P07948)
RPS6KA4 = RPS6KA4 (Homo sapiens, UniProt O75676)
CDK9 = CDK9 (Homo sapiens, UniProt P50750)

Measured: IC50

MAP2K6, sequence (P52564 whole entry): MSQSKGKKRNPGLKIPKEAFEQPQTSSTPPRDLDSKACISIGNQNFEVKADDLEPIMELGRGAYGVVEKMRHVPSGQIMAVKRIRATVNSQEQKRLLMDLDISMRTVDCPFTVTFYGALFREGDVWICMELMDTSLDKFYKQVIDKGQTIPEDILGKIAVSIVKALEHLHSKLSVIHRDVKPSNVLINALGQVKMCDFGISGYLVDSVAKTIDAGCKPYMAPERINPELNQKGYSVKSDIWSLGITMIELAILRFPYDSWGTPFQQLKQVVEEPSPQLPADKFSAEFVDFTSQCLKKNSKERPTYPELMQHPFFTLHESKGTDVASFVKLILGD
LYN, sequence (P07948 whole entry): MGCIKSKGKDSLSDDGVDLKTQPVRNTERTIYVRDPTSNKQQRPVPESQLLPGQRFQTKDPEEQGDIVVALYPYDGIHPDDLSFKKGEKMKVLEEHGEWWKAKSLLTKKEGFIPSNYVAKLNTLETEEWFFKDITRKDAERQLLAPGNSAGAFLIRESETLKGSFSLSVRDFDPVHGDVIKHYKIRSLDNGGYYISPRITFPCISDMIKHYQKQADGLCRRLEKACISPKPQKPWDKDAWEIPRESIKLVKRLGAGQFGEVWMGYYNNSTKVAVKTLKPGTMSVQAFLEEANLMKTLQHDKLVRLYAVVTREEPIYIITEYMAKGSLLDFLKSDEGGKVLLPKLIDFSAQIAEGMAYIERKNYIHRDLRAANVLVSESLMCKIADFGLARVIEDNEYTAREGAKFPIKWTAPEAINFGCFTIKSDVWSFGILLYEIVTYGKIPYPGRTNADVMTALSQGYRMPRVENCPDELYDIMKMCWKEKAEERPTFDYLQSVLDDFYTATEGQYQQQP
MARK2, sequence (Q7KZI7 whole entry): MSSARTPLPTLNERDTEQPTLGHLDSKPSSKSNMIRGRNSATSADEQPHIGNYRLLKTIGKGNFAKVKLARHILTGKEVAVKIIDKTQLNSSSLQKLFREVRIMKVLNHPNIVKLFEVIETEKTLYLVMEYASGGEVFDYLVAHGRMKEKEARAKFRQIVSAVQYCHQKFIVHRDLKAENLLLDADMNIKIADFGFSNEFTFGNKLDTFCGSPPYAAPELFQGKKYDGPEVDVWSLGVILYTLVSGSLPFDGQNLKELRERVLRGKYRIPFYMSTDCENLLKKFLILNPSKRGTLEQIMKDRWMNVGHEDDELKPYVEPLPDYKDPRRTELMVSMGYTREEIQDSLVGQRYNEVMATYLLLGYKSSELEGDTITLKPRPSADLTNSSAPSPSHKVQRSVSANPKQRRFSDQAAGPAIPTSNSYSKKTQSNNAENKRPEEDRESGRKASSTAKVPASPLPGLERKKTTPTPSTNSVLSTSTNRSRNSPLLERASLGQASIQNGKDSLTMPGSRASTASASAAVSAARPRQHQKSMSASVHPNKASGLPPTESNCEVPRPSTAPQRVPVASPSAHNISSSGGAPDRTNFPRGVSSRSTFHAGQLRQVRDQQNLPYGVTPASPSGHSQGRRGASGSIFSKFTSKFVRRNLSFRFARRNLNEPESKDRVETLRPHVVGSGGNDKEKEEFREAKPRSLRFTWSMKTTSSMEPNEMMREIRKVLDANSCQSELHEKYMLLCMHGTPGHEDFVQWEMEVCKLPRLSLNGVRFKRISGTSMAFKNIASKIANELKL
MARK3, sequence (P27448 whole entry): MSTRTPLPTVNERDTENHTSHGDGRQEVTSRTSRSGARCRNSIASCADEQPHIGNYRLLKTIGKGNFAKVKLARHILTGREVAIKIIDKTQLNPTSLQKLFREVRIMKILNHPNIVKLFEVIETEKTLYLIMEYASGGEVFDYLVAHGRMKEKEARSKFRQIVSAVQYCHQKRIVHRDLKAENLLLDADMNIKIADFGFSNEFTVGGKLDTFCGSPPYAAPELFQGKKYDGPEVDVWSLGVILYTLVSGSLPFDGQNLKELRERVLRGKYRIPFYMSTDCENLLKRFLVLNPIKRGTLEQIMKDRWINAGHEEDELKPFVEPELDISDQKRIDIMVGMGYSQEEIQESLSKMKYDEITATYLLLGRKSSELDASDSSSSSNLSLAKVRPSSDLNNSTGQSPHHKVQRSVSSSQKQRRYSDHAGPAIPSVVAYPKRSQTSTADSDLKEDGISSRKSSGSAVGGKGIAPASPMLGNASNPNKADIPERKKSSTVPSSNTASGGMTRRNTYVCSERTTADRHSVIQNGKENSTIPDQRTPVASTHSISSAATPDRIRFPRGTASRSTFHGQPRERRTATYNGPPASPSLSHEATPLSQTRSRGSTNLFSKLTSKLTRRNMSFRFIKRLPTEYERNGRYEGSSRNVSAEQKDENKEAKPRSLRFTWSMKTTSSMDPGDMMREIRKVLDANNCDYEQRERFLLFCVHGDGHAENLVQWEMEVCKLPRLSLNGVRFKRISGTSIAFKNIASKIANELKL
DAPK1, sequence (P53355 whole entry): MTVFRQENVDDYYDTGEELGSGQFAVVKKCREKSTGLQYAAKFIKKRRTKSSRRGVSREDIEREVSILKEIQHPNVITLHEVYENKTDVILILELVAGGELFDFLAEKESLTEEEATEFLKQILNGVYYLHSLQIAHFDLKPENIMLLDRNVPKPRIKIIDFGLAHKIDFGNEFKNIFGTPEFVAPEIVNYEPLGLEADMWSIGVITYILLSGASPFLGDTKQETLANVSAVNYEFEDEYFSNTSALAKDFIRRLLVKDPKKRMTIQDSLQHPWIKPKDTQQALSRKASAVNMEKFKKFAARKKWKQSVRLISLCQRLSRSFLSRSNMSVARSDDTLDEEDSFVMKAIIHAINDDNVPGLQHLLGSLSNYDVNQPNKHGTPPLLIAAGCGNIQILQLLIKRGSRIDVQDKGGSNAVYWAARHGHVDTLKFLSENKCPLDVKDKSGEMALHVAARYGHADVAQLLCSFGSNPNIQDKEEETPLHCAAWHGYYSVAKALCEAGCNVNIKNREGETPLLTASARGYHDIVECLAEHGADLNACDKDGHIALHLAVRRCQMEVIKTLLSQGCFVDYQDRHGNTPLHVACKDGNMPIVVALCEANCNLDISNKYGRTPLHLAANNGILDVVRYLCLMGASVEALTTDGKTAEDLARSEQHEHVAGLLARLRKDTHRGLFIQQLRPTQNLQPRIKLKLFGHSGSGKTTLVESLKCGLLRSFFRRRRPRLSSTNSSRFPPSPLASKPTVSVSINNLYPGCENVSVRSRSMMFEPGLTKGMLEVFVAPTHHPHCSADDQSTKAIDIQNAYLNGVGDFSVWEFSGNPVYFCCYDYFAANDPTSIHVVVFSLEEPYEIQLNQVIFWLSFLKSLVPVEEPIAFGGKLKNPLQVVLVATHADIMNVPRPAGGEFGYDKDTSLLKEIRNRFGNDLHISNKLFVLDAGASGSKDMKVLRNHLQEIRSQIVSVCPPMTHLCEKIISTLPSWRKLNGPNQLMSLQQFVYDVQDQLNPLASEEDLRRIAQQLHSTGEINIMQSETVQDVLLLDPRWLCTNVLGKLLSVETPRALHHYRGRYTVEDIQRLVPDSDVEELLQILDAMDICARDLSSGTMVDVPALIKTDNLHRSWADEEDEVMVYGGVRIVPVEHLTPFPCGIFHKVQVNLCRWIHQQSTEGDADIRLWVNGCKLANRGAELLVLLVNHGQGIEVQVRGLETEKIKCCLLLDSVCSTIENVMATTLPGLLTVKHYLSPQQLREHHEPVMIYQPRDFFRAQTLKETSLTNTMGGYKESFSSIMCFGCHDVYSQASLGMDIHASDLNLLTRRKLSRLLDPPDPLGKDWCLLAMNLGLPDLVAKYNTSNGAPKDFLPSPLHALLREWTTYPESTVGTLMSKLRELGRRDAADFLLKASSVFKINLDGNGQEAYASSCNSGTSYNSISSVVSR
SRC, sequence (P12931 whole entry): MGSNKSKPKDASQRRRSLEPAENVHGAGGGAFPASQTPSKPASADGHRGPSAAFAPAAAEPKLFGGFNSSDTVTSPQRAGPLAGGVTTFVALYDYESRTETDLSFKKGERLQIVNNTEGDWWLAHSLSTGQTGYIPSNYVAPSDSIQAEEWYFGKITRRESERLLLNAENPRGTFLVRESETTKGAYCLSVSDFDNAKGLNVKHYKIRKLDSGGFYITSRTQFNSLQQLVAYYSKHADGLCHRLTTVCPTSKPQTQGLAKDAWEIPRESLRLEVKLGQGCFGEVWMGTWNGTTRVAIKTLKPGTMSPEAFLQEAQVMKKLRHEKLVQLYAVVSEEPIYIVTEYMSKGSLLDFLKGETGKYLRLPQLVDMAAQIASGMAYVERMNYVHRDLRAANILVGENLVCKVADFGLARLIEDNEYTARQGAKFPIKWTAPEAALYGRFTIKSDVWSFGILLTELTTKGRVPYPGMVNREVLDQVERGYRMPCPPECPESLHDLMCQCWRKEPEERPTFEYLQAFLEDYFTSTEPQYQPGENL
PRKG1, sequence (Q13976 whole entry): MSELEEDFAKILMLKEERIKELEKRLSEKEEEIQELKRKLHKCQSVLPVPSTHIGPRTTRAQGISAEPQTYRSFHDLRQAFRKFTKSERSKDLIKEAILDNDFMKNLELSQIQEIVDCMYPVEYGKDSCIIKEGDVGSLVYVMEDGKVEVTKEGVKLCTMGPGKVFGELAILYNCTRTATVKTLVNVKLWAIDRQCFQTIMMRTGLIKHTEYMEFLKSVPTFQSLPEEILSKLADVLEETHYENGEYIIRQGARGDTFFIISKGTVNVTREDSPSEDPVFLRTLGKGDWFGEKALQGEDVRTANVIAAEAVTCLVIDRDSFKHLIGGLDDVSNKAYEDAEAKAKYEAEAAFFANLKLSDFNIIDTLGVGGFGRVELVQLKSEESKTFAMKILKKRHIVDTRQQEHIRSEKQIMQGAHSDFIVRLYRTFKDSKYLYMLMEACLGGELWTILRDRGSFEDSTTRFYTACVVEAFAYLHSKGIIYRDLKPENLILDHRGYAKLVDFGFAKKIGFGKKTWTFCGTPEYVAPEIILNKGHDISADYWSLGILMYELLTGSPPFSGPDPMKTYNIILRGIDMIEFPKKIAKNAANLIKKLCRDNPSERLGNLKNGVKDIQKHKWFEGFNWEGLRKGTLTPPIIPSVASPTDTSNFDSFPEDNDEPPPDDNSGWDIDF

COc1nc(N[C@H]2CC[C@H](NS(=O)(=O)CC(C)C)CC2)nc2[nH]nc(N3CCOC[C@H]3C)c12 [compound 39, N-(trans-4-((4-Methoxy-3-((R)-3-methylmorpholino)-1H-pyrazolo[3,4-d]pyrimidin-6-yl)amino)cyclohexyl)-2-methylpropane-1-sulfonamide]
≥ 20 µM: all assays above
